# Measurements taken from patent US20170096492A1, “DOSAGE AND ADMINISTRATION OF ANTI-IGF-1R, ANTI-ErbB3 BISPECIFIC ANTIBODIES, USES THEREOF AND METHODS OF TREATMENT [sequence]” (Merrimack Pharmaceuticals, Inc., priority 2014, published 2017).
# “Also recorded” adds a separate entry of the source.
# Legend:
# [1] = system: BxPC-3 (KRAS wild type) pancreatic cancer cells; assay: CTG cell viability, gemcitabine or paclitaxel with IGF-1 and HRG, two-dimensional cultures; assay type: cell-based, human; details: IGF-1 50 nM and HRG 10 nM, 2% serum, MM-141 500 nM
# Description: The cell viability assay (FIGS. 7A-B and 8A-B) was carried out using a CellTiter-Glo® (CTG) assay (Promega), which determines the number of viable cells in a culture based on quantitation of the ATP present. In FIGS. 7A-B, BxPC-3 cells were grown in low serum alone or with exogenous IGF-1 or HRG added (0-50 nM). […] For the cell viability assays described in FIGS. 8(A-B), (FIG. 8A) BxPC-3 and (FIG. 8B) CFPAC-1 cells were cultured in low (2%) serum alone or with a combination of IGF-1 (50 nM) and HRG (10 nM).
# BxPC-3 cells = assay: Cellular proliferation assay in low serum with or without IGF-1 or HRG; assay type: cell-based, human; details: for inhibition of cell growth: low (2%) serum
# [2] = system: ovarian cancer cell lines (PEA1, PEA2, OvCAR8); assay: Growth-factor-induced proliferation, 3D in vitro assays (CTG); assay type: cell-based
# [3] = Phase 1 PK analysis of serum MM-141 (ELISA, non-compartmental); assay type: in vivo, human; details: range
# Description: (§1) Serum for PK and PD analysis was prepared by drawing whole blood into red top tubes, clotting 30 minutes at 4-8° C. and spinning down in a refrigerated centrifuge. Serum was aliquotted and frozen immediately after centrifugation. PD analysis of total IGF-1 in serum was performed using Human IGF-I Quantikine® ELISA Kit (R&D Systems, Minneapolis, Minn.) according to the manufacturer's instructions. For the PK analysis, in brief, ELISA plates were plates were coated with IGF-1R (R&D Systems) in PBS and incubated overnight at 4° C. Plates were washed, blocked, and then samples and standards were added to plates and incubated for 2 hr at room temperature. Plates were washed and ErbB3-His was added for 1 hr at room temperature. Plates were washed and anti-His-HRP (Abeam, Cambridge, Mass.) was added for 1 hr at room temperature. Plates were developed using TMB and STOP solution and absorbance was read at 450 nm. PK parameters were analyzed using descriptive statistics including the median, mean and 95% confidence intervals around parameter estimates by dose level. All PK parameters included Cmax, Tmax, AUC (area under the concentration curve), clearance, volume of distribution at steady state (Vdss), and the terminal elimination half-life. Estimation of the PK parameters was performed using standard non-compartmental methods.
# CAKI-1 xenografts = assay: CAKI-1 xenograft PD, western blot; assay type: in vivo, mice
# Description: For the PD study results shown in FIGS. 3A-B and FIGS. 5A-C, NOD/SCID female mice were inoculated with 12×10^6 CAKI-1 or 10×10^6 SK-ES-1 cells, respectively, in 1:1 Matrigel® suspension. […] Tumors were harvested 24 hours after the second dose of drug; lysates were generated and subjected to western blot analysis.
# ovarian cancer cells = assay: Ovarian cancer cell western blot, AKT and ERK signaling; assay type: cell-based; details: MM-141 1 μM 1 hour, then IGF-1 50 nM or HRG 10 nM 10 minutes
# Description: In FIGS. 18A-F, Peol, Peo4, Ov90, PEA1, PEA2 and OvCAR8 ovarian cancer cells were plated on 10 cm plates (1-3×10^6 cells per plate) in 10% serum-containing medium and incubated overnight. […] Following treatment, cells were harvested in lysis buffer containing protease and phosphatase inhibitors and analyzed by western blotting. Phosphorylated and total levels of IGF-1R, ErbB3, AKT and ERK were determined using target-specific antibodies.
# [4] = system: CFPAC-1 pancreatic cancer cells; assay: CellTiter-Glo viability in three-dimensional nano-culture plates; assay type: cell-based, human
# Description: CFPAC-1 pancreatic cancer cells were seeded in 10% serum-containing medium and incubated in 96-well three-dimensional nano-culture plates overnight. […] Cell viability was measured 96 hours post-treatment using CellTiter-Glo® (Promega).
# [5] = system: panel of pancreatic cancer cell lines; assay: pAKT ELISA after HRG and IGF-1 stimulation; assay type: cell-based, human; details: MM-141 500 nM 24 hours, HRG and IGF-1 100 ng/mL 15 minutes, ten cell lines
# Description: Ten pancreatic cancer cell lines (see Table 3 above) were seeded at 65% confluence in 10% serum-containing medium and incubated in 96-well plates overnight. […] Following incubation, cells were treated with a combination of HRG and IGF-1 ligands at 100 ng/mL or PBS (control) for 15 minutes. After treatment, cells were harvested and protein lysates generated. Changes in pAKT levels across all treatments and cell lines were evaluated by pAKT ELISA. Phosphorylated AKT signal from untreated control was subtracted from each treatment, and then pAKT levels post-treatment with HRG and IGF-1 were normalized to 1 for each cell line.
# [6] = system: BxPC-3 cell line xenografts; assay: BxPC-3 xenograft efficacy study; assay type: in vivo, mice
# Description: For the efficacy studies (FIGS. 6C and 9C), nu/nu female mice were inoculated with 8×10^6 DU145 cells and 5×10^6 BxPC-3 cells, respectively. […] Tumor volume was measured weekly as described in Example 4.
# [7] = system: BxPC-3 derived xenograft tumors; assay: BxPC-3 xenograft PD, western blot; assay type: in vivo, mice; details: MM-141 30 mpk i.p. Day 0, 3, 6 co-administered with gemcitabine 150 mpk
# Excerpt: For the PD studies described in FIGS. 6A-B and FIGS. 9 A-B, nu/nu female mice were inoculated with 8×10^6 DU145 or 5×10^6 BxPC-3 cells, respectively, in 1:1 Matrigel® suspension. […] Tumor lysates were generated and subjected to western blot analysis.
# total IGF-1 in serum = assay: Phase 1 PD analysis of total IGF-1 in serum (Quantikine ELISA); assay type: in vivo, human
# Description: as §1
# [8] = single agent, MM-141 30 mpk i.p. or everolimus 10 mpk orally, 2 doses, tumors harvested 24 hours after second dose
substance,measurement,setting,value
"MM-141: polyvalent bispecific antibody P4-G1-M1.3, anti-IGF-1R and anti-ErbB3; heavy chain SEQ ID NO: 3, light chain SEQ ID NO: 4",resistance to cytotoxic effect of gemcitabine and paclitaxel caused by combination of IGF-1 and HRG,[1],resistance was reversed
same,"inhibition of cell growth, greater than in the absence of ligand",BxPC-3 cells; in presence of HRG,approximately 50%
same,inhibition of cell growth,BxPC-3 cells; IGF-1 added to the media,maximal activity
same,inhibition of cell growth,BxPC-3 cells; absence of exogenous ligand,unable to inhibit cell growth
same,IGF-1 and HRG growth-factor-induced proliferation,[2],blocks
same,Half-lives,[3]; 6 mg/kg q7d,2.4 to 6.3 days
same,Half-lives,[3]; 12 mg/kg q7d,2.1 to 2.9 days
same,Half-lives,[3]; 20 mg/kg q7d,3.3 to 3.4 days
same,Half-lives,[3]; 40 mg/kg q14d,3.2 to 9.9 days
same,everolimus-induced upregulation of IGF-1R and ErbB2 (resistance mechanism),CAKI-1 xenografts; MM-141 30 mpk i.p. co-administered with everolimus 10 mpk orally,resistance mechanism was inhibited
same,total ErbB2,CAKI-1 xenografts; [8],down regulation
same,total IGF-1R,CAKI-1 xenografts; [8],down regulation
same,IGF-1 and/or HRG induced upregulation in AKT and ERK survival signaling,ovarian cancer cells,could be abrogated
same,proliferation compared to cells incubated with ligands alone,"[4]; MM-141 1000 nM in addition to HRG 10 nM and IGF-1 50 nM, with gemcitabine or paclitaxel",reduced proliferation
same,sensitivity to gemcitabine in cells stimulated with HRG and IGF-1,"[4]; gemcitabine 2 nM, HRG 10 nM, IGF-1 50 nM, MM-141 1000 nM, 96 hours",restores sensitivity
same,sensitivity to paclitaxel in cells stimulated with HRG and IGF-1,"[4]; paclitaxel 6 nM, HRG 10 nM, IGF-1 50 nM, MM-141 1000 nM, 96 hours",restores sensitivity
same,pAKT (AKT activation) induced by the combination of HRG and IGF-1,[5],blocks AKT activation; also recorded: greatly reduced amount of pAKT
same,tumor growth after development of resistance to gemcitabine,[6]; MM-141 30 mpk i.p. q3d added to the gemcitabine regimen on day 41,decreased tumor growth
same,activity of gemcitabine in the combination arm,[6]; MM-141 30 mpk i.p. q3d co-administered with gemcitabine 150 mpk i.p. q6d,increased the activity of gemcitabine
same,therapeutic synergy with gemcitabine,[6]; MM-141 30 mpk i.p. q3d with gemcitabine 150 mpk i.p. q6d,therapeutic synergy
same,"gemcitabine-induced receptor (IGF-1R, ErbB3) up-regulation",[7],reversed the receptor up-regulation
same,increase in serum total IGF-1,total IGF-1 in serum; 6 mg/kg cohort,approximately two-fold in 1/3 patient samples
same,increase in serum total IGF-1,total IGF-1 in serum; 12 mg/kg cohort,approximately two-fold in 1/3 patient samples
same,increase in serum total IGF-1,"total IGF-1 in serum; 20 mg/kg, all patient samples",approximately a two-fold increase
same,increase in serum total IGF-1,"total IGF-1 in serum; 40 mg/kg, all patient samples",approximately two to four fold increases
